From patent US20230134376A1, “METHOD FOR QUANTITATIVE IMAGING OF THE METABOLIC STATUS OF A LESION” (priority 2020, published 2023)

Tests used:
NADH/NAD+ ratio = assay: FLIM phasor quantification of NADH/NAD+ ratio (anaerobic glycolysis) in incisional skin wound; assay type: in vivo, mice (C57Bl6/J); settings: for slope of gradient of NADH/NAD+ ratio vs distance from wound: untreated −0.267±0.06; for NADH/NAD+ ratio in perilesional area vs untreated condition (in words): comparison between first 10 values of each condition, t-test; for line slope of linear regression of NADH/NAD+ ratio vs untreated (in words): deviation between slopes test
Text: FIG. 2: Measurement of anaerobic glycolysis in wound by FLIM quantification of NADH/NAD^+ ratio. Phasor analysis of free and bound NADH fluorescence allows a quantification of their relative increase. A, map of a gradient of NADH/NAD+ ratio (grey). Wound margin is highlighted with a dashed line. All scale bars 100 μm. B, phasor analysis of FLIM NADH fluorescence. NADH region of the phasor plot was divided in five sub-regions along the major axis and each is associated with an intensity value (0-20, 20-40, 40-60, 60-80, 80-100). […] D, NADH/NAD^+ ratio percentage as a function of distance from wound (grey). […] NADH/NAD^+ ratio is lower in perilesional area of DCA-treated mice (grey line vs grey line of D, comparison between first 10 values of each condition, t-test ****, P<0.0001). n=3 mice.
FIG. 8. Effect of the mitochondrial respiratory chain in the measurement of NADH/NAD^+ ratio as expression of glycolysis in wound. A, NADH/NAD^+ ratio percentage as a function of distance from wound. […] NADH/NAD^+ ratio is lower in perilesional area of Antimycin A-treated mice (bottom graph vs grey line for untreated condition, comparison between first 10 values of each condition, t-test, P<0.0001). […] B, map of a gradient of NADH/NAD+ ratio (grey) in wound in untreated (n=4) or mice treated with Rotenone (n=3) and Antimycin A (n=2). Wound margin is highlighted with a dashed line. All scale bars 20 μm.
On day 1 after wounding, FLIM images were acquired with 2PM and stitched to produce lifetime XYZ mosaics (600-1000 μm wide and 200 μm deep) (FIG. 2a). Common FLIM imaging has slow acquisition times, which are required to collect enough photons to reconstruct a time decay curve. This was compensated by the use of a time correlated single-photon counting (TCSPC) 16-channel parallel detector, with an average counting speed of 80 MHz which allowed faster 3D scanning of the mosaic over lesion area^31. The ratio of free to protein-bound NADH has been known to be associated with the ratio of NAD^+ to NADH in small intestine epithelial cells^32 and breast cancer cells^33. Protein-bound NADH has a complex multi-exponential lifetime decay that has been related to its binding to different enzymes, such as malate dehydrogenase and lactate dehydrogenase^34. Standard approaches revolved on a characterization by fitting with a two-exponential curve, corresponding to a short or long lifetime range. This approximation is however misleading because free and protein-bound NADH have common exponential components and the NADH binding sites with different enzymes cannot be considered^32, 35. In fact, in our case this approach was ineffective to discriminate between untreated and DCA-treated mice (FIG. 7). […] Instead, phasor analysis^32, 36 was used. In accordance with a previous report^37, we designed an analysis that first divides the phasor cloud into five regions (FIG. 2b) corresponding to a gradient of prevailing anaerobic glycolysis in regions of lower lifetimes towards a region where more oxidative phosphorylation occurs. Pixels attributed to each region were then associated to discrete values of decreasing intensity, and therefore quantification of pixel intensity on the resulting image was proportional to the relative increase in anaerobic glycolysis. By linearizing images, we obtained a spatial distribution of anaerobic glycolysis from wound profile (FIG. 2c). At lesion margin, gradient of NADH/NAD^+ ratio corresponded to 29.1±0.4% and decreased until to 2.6±0.1% distance (range of 200-500 μm) from the wound. The decrease was evaluated with a linear regression fitting as the simplest fitting model for testing the overall deviation from zero slope curve (linear regression fitting with a slope of −0.050±0.0016 μm^−1; black line with 95% CL bands; deviation from zero slope test, P<0.0001) (FIG. 2d). An increased anaerobic glycolysis around wound margins was also evident in XZ maximum intensity projection images of the maps (FIG. 2e). […]

excisional skin wound = assay: Full-thickness excisional skin wound healing model, kinetic analysis of wound area; assay type: in vivo, mice (C57BL/6J); settings: for DCA-mediated delayed wound closure (measurement of wound area) compared to control mice: single administration 300 mg/Kg i.p. 1 h prior skin wounding
Description: FIG. 1: In vivo relevance of the cell metabolic adaptation in skin repair. The excisional skin wound healing model was used. Left, kinetic analysis of skin wound areas was performed. Values represent mean±SD. Right, representative macroscopic images of untreated and DCA treated mice are shown at the indicated days after wounding. Bar, 5 mm. *P<0.05, **P<0.01; Student's t-test. Untreated, n=8; DCA, n=9. One experiment shown out of two performed with similar number of animals.
In order to determine the relevance of wound acidification in healing outcome in vivo, the pyruvate dehydrogenase kinase (Pdk) inhibitor dichloroacetate (DCA) was used in a model of full-thickness excisional skin wounding to promote glucose oxidation over anaerobic glycolysis, thus interfering with local acidosis.
Excisional model of skin injury. A full-thickness excisional skin injury model was performed as previously described^7. Mice were anesthetized with 10 μL/g of weight of Ketamine (final concentration 10 mg/mL) and Xylazine (final concentration 1 mg/mL) in saline buffer. As described^7, a full-thickness wound (from skin to underlying panniculus carnosus) was generated with disposable biopsy punch (8-mm diameter). Gentamicin was immediately applied to limit gross bacterial infections, not evident from histological examination carried out at different time points of the experiment. Mice were optionally treated with a solution of sodium dichloroacetate (DCA; Sigma-Aldrich Corp.), which was injected i.p. in 10-12 weeks-old C57BL/6J with a dosage of 300 mg/Kg 1 h before skin wounding. PBS or saline were used in control mice. As previously described^7, the skin wounds of each mouse were digitally photographed and measured during wound healing by tracing them on a transparency, calculated with the ImageJ-Fiji software, and the variations in time expressed as a percentage of the initial wound area.

**Q.** For Antimycin A, which “slope of gradient of NADH/NAD+ ratio vs distance from wound” value (NADH/NAD+ ratio; Antimycin A 5 μM i.d. 1 h before imaging, P<0.0001) is on record?
**A.** −0.046±0.08 μm^−1

**Q.** And the “glycolysis at wound margin (NADH/NAD+ ratio)” value (NADH/NAD+ ratio; Antimycin A 5 μM i.d., untreated 20.28±0.41%, P<0.0001)?
**A.** 8.37±0.49%

**Q.** What about the “NADH/NAD+ ratio in perilesional area vs untreated condition (in words)” value (from here on “NADH/NAD+ ratio in perilesional area”) (NADH/NAD+ ratio) of the same compound?
**A.** lower

**Q.** And the “line slope of linear regression of NADH/NAD+ ratio vs untreated (in words)” value (NADH/NAD+ ratio; P<0.0001)?
**A.** reduction in line slope

**Q.** With `O=C([O-])C(Cl)Cl.[Na+]` [DCA, sodium dichloroacetate] as the compound, how does the “anaerobic glycolysis (NADH/NAD+ ratio) at perilesional area” value (NADH/NAD+ ratio; DCA 300 mg/Kg i.p., 1 h, mean of the first 10 values, untreated 29.1±0.4%, P<0.0001) read?
**A.** 8.0±0.2%

**Q.** What about the “gradient steepness, slope of linear regression of NADH/NAD+ ratio vs distance from wound” value (NADH/NAD+ ratio; DCA 300 mg/Kg i.p., 1 h, untreated −0.050±0.0016, P<0.0001) of the same compound?
**A.** −0.035±0.0023 μm^−1

**Q.** And the “NADH lifetime decays in perilesional regions fitted with a two-exponential decay function, treated vs untreated” value (NADH/NAD+ ratio; Student t-test, P>0.05)?
**A.** could not show significant differences

**Q.** And the “NADH/NAD+ ratio in perilesional area” value (NADH/NAD+ ratio)?
**A.** lower

**Q.** What about the “line slope of linear regression of NADH/NAD+ ratio vs untreated (in words)” value (NADH/NAD+ ratio; P<0.0001) of the same compound?
**A.** reduction in line slope

**Q.** And the “DCA-mediated delayed wound closure (measurement of wound area) compared to control mice” value (excisional skin wound; day 1, P=0.005)?
**A.** −28.3%

**Q.** And the “DCA-mediated delayed wound closure (measurement of wound area) compared to control mice” value (excisional skin wound; day 2, P=0.004)?
**A.** −27.1%

**Q.** And the “DCA-mediated delayed wound closure (measurement of wound area) compared to control mice” value (excisional skin wound; day 3, P=0.05)?
**A.** −22.5%

**Q.** What about the “DCA-mediated delayed wound closure (measurement of wound area) compared to control mice” value (excisional skin wound; day 4, P=0.02) of the same compound?
**A.** −24.5%

**Q.** And the “DCA-mediated delayed wound closure (measurement of wound area) compared to control mice” value (excisional skin wound; day 5, P=0.002)?
**A.** −30.5%

**Q.** What about the “DCA-mediated delayed wound closure (measurement of wound area) compared to control mice” value (excisional skin wound; day 6, P=0.01) of the same compound?
**A.** −20.4%

**Q.** What about the “DCA-mediated delayed wound closure (measurement of wound area) compared to control mice” value (excisional skin wound; day 7, P=0.03) of the same compound?
**A.** −17.4%

**Q.** And the “wound closure curve compared to mice treated with vehicle alone” value (excisional skin wound; single administration 300 mg/Kg 1 h prior skin wounding, n=9 vs n=8)?
**A.** significantly delayed curve

**Q.** For `C=C(C)[C@H]1Cc2c(ccc3c2O[C@@H]2COc4cc(OC)c(OC)cc4[C@@H]2C3=O)O1` [Rotenone], which “glycolysis in regions distant from the wound” value (NADH/NAD+ ratio; Rotenone 20 μM local) is on record?
**A.** increased glycolysis in regions distant from the wound

**Q.** And the “slope of gradient of NADH/NAD+ ratio vs distance from wound” value (NADH/NAD+ ratio; Rotenone 20 μM local (i.d.) 1 h before imaging, P<0.0001)?
**A.** −0.113±0.002 μm^−1

**Q.** And the “fraction of anaerobic glycolysis at wound margin” value (NADH/NAD+ ratio; Rotenone 20 μM local (i.d.), untreated 20.28±0.41%, P>0.05)?
**A.** 20.08±0.21%

**Q.** And the “NADH/NAD+ ratio in perilesional area” value (NADH/NAD+ ratio)?
**A.** no significant decrease in value

**Q.** What about the “line slope of linear regression of NADH/NAD+ ratio vs untreated (in words)” value (NADH/NAD+ ratio; P<0.0001) of the same compound?
**A.** significant reduction in line slope
